The values that follow come from patent US20060058395A1, “Compounds useful for the treatment of diseases responsive to antiangiogenetic therapy” (NEUROSEARCH A/S, priority 2002, published 2006).

For series [1], the system named is HUVEC, fibroblasts, Mel 57 and T47D cells. Briefly: Cell-specificity assay: incorporation of [3H]thymidine. As to conditions: bFGF-induced HUVEC and fibroblast proliferation vs NBCS-induced Mel 57 and T47D proliferation; FIG. 1. Type of series: cell-based. As for the experimental part:
Cell-Specificity Assay: Incorporation of [^3H]Thymidine
Confluent cultures of HUVEC, fibroblasts, Mel 57 and T47D cells were detached by trypsin/EDTA solution, and allowed to adhere and spread at an appropriate cell density on gelatine-coated dishes in M199-HEPES medium or DMEM-HEPES medium both supplemented with 10% heat-inactivated new born calve serum (NBCS) and penidillin/streptomycin. After 18 h the HUVEC and fibroblasts were stimulated with 2.5 ng/ml FGF-2 in M199-HEPES, penicillin/streptomycin, 10% NBCS and 0.1% DMSO in duplicate wells, with or without the test compounds. […] Subsequently, the cells were washed with PBS, [3H]-labelled DNA were fixed with methanol, and precipitated in 5% trichloroacetic-acid, and finally dissolved in 0.5 ml 0.3 M NaOH and counted in a liquid scintillation counter.
All outcome measures were measured in singular, i.e. one measurement per culture well. The proliferation of HUVEC, fibroblast, Mel 57, and T47D tumor cells was expressed as mean±range [3H]-thymidine incorporation (dpm) of duplicate wells.
The percentage of inhibition of FGF-2-induced HUVEC and fibroblast proliferation by the compounds was calculated as follows: [formula] […] The percentage of inhibition of the Mel 57 and T47D tumor cell proliferation by the compounds will be calculated as follows: [formula] […]

Series [2] relates to HUVEC. Briefly: Cell morphology and proliferation assay. Type of series: cell-based. How it is done: Cell Morphology and Proliferation Assay
One week before the assay, a vial with HUVEC (passage 1) was thawed and cultured (after a split ratio of 1:3) to confluence (passage 2). The confluent culture of HUVEC was detached by trypsin/EDTA solution, and allowed to adhere and spread at cell density of 10, 50 and 100% confluency on gelatine-coated dishes in M199-HEPES medium supplemented with 10% heat-inactivated NBCS, 10% human serum and penicillin/streptomycin. After 18 h the HUVEC were preincubated with the test compounds for 4 hours. Then the HUVEC were washed and restimulated in the absence or presence of the test compounds and the reference compounds with 2.5 ng/ml FGF-2 in M199-HEPES, penicillin/streptomycin, 10% NBCS, 10% human serum and 0.1% DMSO in triplicate wells for 5 (10% confluency) or 3 days (50 and 100% confluency), with or without the test compounds. The cell number was determined by image analysis (P. Koolwijk, 2001)
To investigate the mode of action of the compound on proliferating and non-proliferating HUVEC, experiments were performed on 10%, 50% and 100% confluent monolayers of HUVEC. The 10% and 50% confluent HUVEC monolayers represent the status of angiogenic endothelial cells able to proliferate and migrate when stimulated. The 100% HUVEC monolayers represent the quiescent character of the endothelial cells in the existing blood vessel. The 4-hour preincubation experiments were performed to be able to discriminate between general toxicity and the induction of apoptosis.

Series [3] relates to neovascularisation. Nature of the series: Mouse anti-angiogenesis assay (bFGF sponge implant). Type of series: in vivo. As to conditions: for neovascularisation in mice (percent inhibition): Days 3-9. How it is done: NMRI female mice (SPF Bom:NMRI) weighing 25-27 g were obtained from M&B, Ejby, Lille Skensved, Denmark. They were housed in a facility where light was controlled on a 12 hour light-dark cycle. […] The animals were fed a pelleted rodent diet (Altromin 1324, Brogarden, Denmark) ad libitum and had free access to tap water. All animals were observed daily for clinical signs.
Slow-release pellets containing 400 ng of human basic fibroblast growth factor (Innovative Research of America, Florida, USA) were circular and with a diameter of 1.5 mm. The angiogenic peptide was guarantied by the supplier to be released over a period of 10 days.
The mice were anaesthetized using inhalation anaesthesia (halothane/N2O and oxygen). The skin of the back was shaved using an electric shaver and the skin was disinfected using 70% ethanol. A 5 mm incision was made transversely in close proximity to the shoulder blades and a 2 cm pocket reaching caudally to the pelvic region was created by blunt dissection, carefully separating the skin from the fascie. A polyurethane sponge with the dimension of 8×5×3 mm containing a slow-release pellet of 400 ng bFGF was placed at the caudal end of the pocket and the incision was closed by a single or double invert suture using Perma-Hand Seide 4/0 (Johnson & Johnson, Brussels, Belgium). The animals were treated by an analgesic subcutaneous injection of carprofen 2 mg/kg.
The angiogenic response was quantitated as previously described (Lichtenberg et al., 1997, 1999 & 2002). Briefly, twenty minutes before euthanasia 1 μCi of ^125I-labelled immuno-globulin (Amersham, UK) in 50 μl of 0.9% NaCl was injected intravenously into a tail vein. The animals were euthanised by O2/CO2 asphyxiation and the skin overlying the sponge implant was removed. The sponge implant with the pellet was placed in a plastic vial containing 4% formalin and the ^125I-activity was measured in a γ-counter. Differences in angiogenic response measured as ^125I-activity in cpm were assessed by Student's t-test, grouped data, with P<0.05 regarded as statistically significant. Data was expressed as means±SEM.
Three separate experiments were conducted: Two experiments were performed with Compound a and one experiment was performed with Compound b. In the first two experiments with Compound a, 3 groups each comprising 5 animals was treated orally with Compound a at the dose levels of 0 (saline), 5 and 10 mg/kg/day (experiment 1) and with 20 and 40 mg/kg/day (experiment 2). In the third experiment, 3 groups each comprising 6 animals was treated orally with the vehicle (saline) and 80 mg/kg/day of Compound a. In all experiments the animals were treated from Days 3-9 and killed at day 10.

For series [4], the system named is B16/F10 melanoma cells. Briefly: Mouse metastasis assay. It is filed as in vivo, mice. Particulars: for Colony Count (B16 melanoma lung colonies): day 14, mean ± SEM; for % Reduction of melanoma lung colonies vs vehicle: C57BL/6 mice. From the text: Female C57BL/6 mice were supplied and delivered by Charles River UK Ltd. The animals were approximately 6 weeks of age at the start of the study. The body weights at the start of dosing were in the range 10-21 g. The mice were housed in solid-bottomed plastic cages, containing wood shavings, in groups of up to 10. During acclimatization, the rooms and cages were cleaned at regular intervals to maintain hygiene. The mice were fed an expanded rodent diet ad libitum and allowed free access to mains tap water. […] (McKay, 2002).
Data was expressed as means±SEM and analysed using appropriate statistical methods. Statistical significance was assumed when P<0.05.
Two separate studies were conducted: One was performed with Compound a (experiment 1) and one with Compound b (experiment 2). In each study there were 4 treatment groups. The treatment groups were as follows:
Treatments for groups 24 were administered orally, by gavage. The dose volume used was 20 ml/kg for groups 2 and 4 and 15 ml/kg for group 3.
C57BU6 mice were injected intravenously, via a tail vein, with 0.1 ml of a suspension of B16/F10 melanoma cells (approximately 3×10^5 cells/mouse) on day 0. With the exception of the untreated group, animals were dosed orally, by gavage, or intravenously, according to their allocated treatment group once daily, from day −2 to day 10 (13 administrations). The animals were killed on day 14 (14 days after injection of the tumour cells). The lungs from each animal were removed and weighed prior to fixing in Bouin's solution.

The mark [5] stands for this setting: 60 mg/kg p.o. once daily day -2 to day 10, C57BL/6 mice.
[6] abbreviates: 80 mg/kg p.o. once daily day -2 to day 10, C57BL/6 mice.

Values joined by “and” are separate entries in the source; they are usually repeats but may differ in a detail not shown here. Equal values may be shown once.

With `O=C(Nc1ccc([N+](=O)[O-])cc1)Nc1ccc(Br)cc1-c1nnn[nH]1` [Compound a, N-4-Nitrophenyl-N′-[4-bromo-2-(1-H-tetrazol-5-yl)phenyl]urea], the “cell-specificity of inhibition of proliferation” value in series [1] was “more potent inhibitor of the bFGF-induced HUVEC and fibroblast proliferation”. Also, the “inhibition of HUVEC proliferation” value in series [2] (4-hour preincubation, compound then removed for the rest of the stimulation period) is “not able to inhibit HUVEC proliferation significantly”; in series [2] (continuous presence of the compound, 10% confluent monolayers), “clear inhibitory effect”; in series [2] (continuous presence of the compound, 50% confluent monolayers) it was “slightly observed”; in series [2] (continuous presence of the compound, 100% confluent monolayers) it was “no effect”. In series [2] (100% confluent monolayers, culture periods with the compound), the “cytotoxicity (HUVEC morphology, floating dead cells)” value is “no change of HUVEC morphology and the amount of floating dead cells”. Moreover, in series [2] (HUVEC, 4-hour preincubation period), the “cytotoxicity (cell death, floating cells in the media)” value is reported as “No signs of any cytotoxicity”. Further, the “neovascularisation in mice (percent inhibition)” value worked out at 15% in series [3] (5 mg/kg/day orally) and 28% in series [3] (20 mg/kg/day orally). For the same molecule, the “No Effect Level (NOEL)” value in series [3] (oral, neovascularisation in mice) is reported as 5 mglkg/day. Moreover, the “Colony Count (B16 melanoma lung colonies)” value in series [4] (setting [5]) turned out to be 64.68 ± 2.65; in series [4] (setting [6]), 61.85 ± 2.89. In addition, the “% Reduction of melanoma lung colonies vs vehicle” value in series [4] (60 mg/kg p.o.) was 17% and 17.38%; in series [4] (80 mg/kg p.o.), 21%.
For the molecule `O=C(Nc1cc(C(F)(F)F)cc(C(F)(F)F)c1)Nc1ccc(Br)cc1-c1nnn[nH]1` [Compound b, N-3,5-Di(trifluoromethyl)phenyl-N′-[4-bromo-2-(1-H-tetrazol-5-yl)phenyl]urea], the “tolerability (signs of toxicity, body weight gain)” value in series [3] (mice, selected dose levels, oral) was “no signs of toxicity or changes of the body weight gain”. Further, the “Colony Count (B16 melanoma lung colonies)” value is given as 41.55 ± 9.55 in series [4] (setting [5]) and 36.65 ± 5.82 in series [4] (setting [6]). The “% Reduction of melanoma lung colonies vs vehicle” value in series [4] (60 mg/kg p.o.) was 36% and 36.45%; in series [4] (80 mg/kg p.o.), 44% and 43.97%.
